Measurements: US11873319B2, “Cyclic di-nucleotide induction of type I interferon” (The Regents of the University of California, priority 2013, dated 2024)

Legend:
[1] = human clinical trials; cited from earlier work
hSTING = hSTING (Homo sapiens, UniProt Q86WV6); settings: Conlon et al.; cited from earlier work
variant STING alleles = experiment: UV crosslinking binding assay of variant STING alleles to 32P-c-di-GMP; set-up: species or system mouse and human; settings: lysates of transfected 293T cells, FIG. 3B
Description: FIG. 1, panels A-F show the variable responsiveness of human STING variants to cyclic-di-nucleotides maps to arginine 232. (Panel A) THP-1 cells were transduced with vectors encoding an shRNA targeting STING or a control shRNA. Cells were then stimulated with cyclic-di-GMP (cdG), dsDNA, cyclic-di-AMP (cdA), poly-inosine:cytosine (pI:C), or Sendai Virus, and induction of human interferon-β mRNA was assessed by quantitative reverse transcriptase PCR. (Panel B) Western blotting confirmed that knockdown of STING was effective. (Panel C) HEK293T cells were transfected with the indicated amounts of various mouse (m) or human (h) STING expression plasmid and then stimulated 6 h later by transfection with synthetic cdG (5 μM). […] STING activation was assessed by use of a co-transfected IFN-luciferase reporter construct. […] IFN induction was measured by qRT-PCR. ND, not detected. […] Binding was quantified by autoradiography. […]
(Panel A) 293T cells were transfected with the indicated alleles of mouse (m)STING or human (h)STING and were then stimulated with c-di-GMP (cdG). STING activity was detected by the induction of a co-transfected IFN-luciferase reporter construct and expressed as fold-induction over luciferase activity of unstimulated cells. (Panel B) Lysates of transfected 293T cells were UV crosslinked in the presence of α32P-c-di-GMP, resolved by SDS-PAGE, and then analyzed by autoradiography. […]

Sequence of hSTING (Q86WV6 whole entry): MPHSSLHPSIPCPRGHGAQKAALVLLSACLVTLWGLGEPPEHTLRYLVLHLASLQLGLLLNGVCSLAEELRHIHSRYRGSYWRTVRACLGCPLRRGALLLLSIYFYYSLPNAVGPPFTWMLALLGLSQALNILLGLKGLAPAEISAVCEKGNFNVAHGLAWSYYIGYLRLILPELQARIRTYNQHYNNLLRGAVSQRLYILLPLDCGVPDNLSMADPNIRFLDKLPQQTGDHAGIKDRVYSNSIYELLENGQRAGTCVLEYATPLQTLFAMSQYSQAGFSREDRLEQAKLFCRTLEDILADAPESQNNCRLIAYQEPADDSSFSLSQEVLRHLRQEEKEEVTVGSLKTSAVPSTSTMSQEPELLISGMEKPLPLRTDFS

| Structure (SMILES) | efficacy in humans [1] | stimulation of hSTING (hSTING) | binding to variant STING alleles (variant STING alleles) |
| --- | --- | --- | --- |
| Cc1ccc2c(=O)c3cccc(CC(=O)O)c3oc2c1C [DMXAA] | not found to be efficacious | unable to stimulate |  |
| Nc1nc2c(ncn2[C@@H]2O[C@@H]3COP(=O)(O)O[C@H]4[C@@H](O)[C@H](n5cnc6c(=O)[nH]c(N)nc65)O[C@@H]4COP(=O)(O)O[C@H]3[C@H]2O)c(=O)[nH]1 [cyclic-di-GMP] |  |  | bound |
